{"source": "patent US12329753B2", "about": "“Phosphodiesterase inhibitor treatment” (Cyrano Therapeutics, Inc., priority 2008, dated 2025)", "key": {"[1]": {"system": "patients with hyposmia", "test": "Pilot study of intranasal theophylline, subjective taste and smell response", "format": "in vivo, human", "excerpt": "Ten patients with hyposmia were selected from among 400 patients with hyposmia to participate in a pilot study to determine safety and efficacy of intranasal theophylline for the treatment of hyposmia. […] Selection for inclusion in the intranasal study was based upon several criteria. 1) non-response to oral theophylline; 2) severe side effects with oral theophylline that prevented reaching a dose of sufficient strength to restore smell function; and/or 3) preference for intranasal medication over oral medication.\nSubjective responses to treatment were obtained independent of any interaction with the clinical staff by using a scale of 0-100 to measure response of taste function and smell function to treatment with 0 indicating no response, 100 indicating return to normal function and intermediate numbers indicating an intermediate response.\nThe patients inserted a plastic syringe containing 0.4 ml of fluid (20 μg theophylline) into each naris once a day. […] The drug dose was delivered through a plastic nipple which fitted snugly onto the filled syringe which was attached directly to the nipple. One nipple was supplied for each set of two syringes in each application kit. The patient fitted the nipple on one syringe, placed the nipple securely into the lower naris and injected the contents of the syringe directly into the lower vault of one naris accompanied by a modest inhalation. […]"}, "[2]": {"system": "patients with hyposmia", "test": "Smell function tests (DT, RT, ME), forced-choice three-stimuli stepwise-staircase technique, open trial of oral theophylline", "format": "in vivo, human", "settings": "for detection threshold (DT), amyl acetate / detection threshold (DT), nitrobenzene / detection threshold (DT), pyridine / detection threshold (DT), thiophene / magnitude estimation (ME), amyl acetate / magnitude estimation (ME), nitrobenzene / magnitude estimation (ME), pyridine / magnitude estimation (ME), thiophene / recognition threshold (RT), amyl acetate / recognition threshold (RT), nitrobenzene / recognition threshold (RT), pyridine / recognition threshold (RT), thiophene: mean ± SEM", "source_text": "Patients initially reported their sensory dysfunction as either loss of taste (i.e., flavor) and/or smell function. This subjective response was documented by objective psychophysical measurements of olfactory function administered to each patient by use of a forced-choice, three-stimuli, stepwise-staircase technique in a fixed, controlled design (1, 53). Efficacy of this technique and results of testing were previously documented in a double-blind clinical trial (53). Four odors were used; they were pyridine (dead-fish odor), nitrobenzene (bitter-almond odor), thiophene (petroleum-like odor) and amyl acetate (banana-oil odor). Detection thresholds (DT), recognition thresholds (RT) and magnitude estimation (ME) values for each odor were determined as previously described (1, 53). Thresholds were converted into bottle units (BU) as previously described (53) and results reported as M±SEM of correct responses for each odor in each treatment group; ME was reported in % and results calculated to obtain M±SEM for each treatment group for all correct responses using data for the four highest odor concentrations presented (from 10^−2M—an absolute odor concentration).\nAfter determination of hyposmia, patients were treated in an open label, fixed design, controlled open trial. Patients were given an oral extended release theophylline in divided daily doses taken in the middle of breakfast and lunch. All patients were initially given 200 mg of theophylline; changes in this dose were made based upon subjective responses to therapy. If at a subsequent return visit, patients reported ≥5% subjective improvement in overall smell function, they continued on this same dose of theophylline and were reevaluated after four to six months of continued treatment. Results from any subsequent return from these improved patients were not included in any subsequent data report. All subsequent comparisons between treated and untreated patients were made only between those patients continuing in the study compared to their own measurements obtained in the untreated state. If patients reported <5% subjective improvement, their theophylline dose was increased by 200 mg daily and they were scheduled for retesting at the study site after two to four months at this new dosage. For patients that reported <5% improvement, this sequence continued until patients reached 800 mg of theophylline, at which time the study was considered completed.\nPatients returned for reevaluation after two to four months of treatment. Measurements of blood serum theophylline were measured by a fluorescence polarization assay (Abbott, Chicago, IL). At this time, subjective changes in smell function were measured independently (compared to patient's memory of previous normal smell function monitored by use of the patients' daily measurements) using the scale from −100-0-+100 previously described (vs). After independently recording their subjective responses, smell function was measured for all four odors with DT, RT, ME and H determined without recourse to prior measurements.\nSince data for all measurements from each patient group (local or distant) on each dose level were combined mean and SEM for each measurement (DT, RT, ME, H) of smell function for each treatment group were calculated on this basis. Differences in measurements between before treatment and each treatment level were calculated and significance of differences estimated using Student t tests (values p<0.05 considered significant). Some patient responses were also analyzed by use of non-parametric statistics (sign test) and the Spearman rank correlation technique; […] was considered significant related to smell loss type and treatment response. Since each patient served as his/her own control with respect to before and after treatment, paired t tests were also calculated; […] were considered significant. These values were not included in the results presented."}, "[3]": {"settings": "oral 200 mg daily, 2-6 months, all patients (199)"}, "[4]": {"settings": "oral 200 mg, Type I hyposmia (57)"}, "[5]": {"settings": "oral 400 mg daily, 2-6 months, all patients (120)"}, "[6]": {"settings": "oral 400 mg, Type I hyposmia (33)"}, "[7]": {"settings": "oral 600 mg daily, 2-12 months, all patients (160)"}, "[8]": {"settings": "oral 600 mg, Type I hyposmia (51)"}, "[9]": {"settings": "oral 800 mg daily, 2-12 months, all patients (28)"}, "[10]": {"settings": "oral 800 mg, Type I hyposmia (12)"}}, "note": "Marks after values point to notes of the source that are not given here.", "data": [{"smiles": "Cn1c(=O)c2[nH]cnc2n(C)c1=O", "note": "[theophylline]", "values": [{"measurement": "subjective improvement in both taste and smell function over prior results with oral theophylline", "setting": "[1]; intranasal 20 μg per naris once a day, 4 weeks, six of eight patients", "result": "10-20%"}, {"measurement": "further loss of smell while in the study", "setting": "[1]; intranasal 20 μg per naris, after stopping oral theophylline", "result": "No patient exhibited a further of loss of smell"}, {"measurement": "detection threshold (DT), amyl acetate", "setting": "[2]; [3]", "result": "7.9 ± 0.2^c BU"}, {"measurement": "detection threshold (DT), nitrobenzene", "setting": "[2]; [3]", "result": "7.8 ± 0.2^d BU"}, {"measurement": "detection threshold (DT), pyridine", "setting": "[2]; [3]", "result": "7.6 ± 0.2^a BU"}, {"measurement": "detection threshold (DT), thiophene", "setting": "[2]; [3]", "result": "7.5 ± 0.2^c BU"}, {"measurement": "magnitude estimation (ME), amyl acetate", "setting": "[2]; [3]", "result": "15 ± 2^d %"}, {"measurement": "magnitude estimation (ME), nitrobenzene", "setting": "[2]; [3]", "result": "17 ± 2^ %"}, {"measurement": "magnitude estimation (ME), pyridine", "setting": "[2]; [3]", "result": "28 ± 2^a %"}, {"measurement": "magnitude estimation (ME), thiophene", "setting": "[2]; [3]", "result": "21 ± 2^ %"}, {"measurement": "recognition threshold (RT), amyl acetate", "setting": "[2]; [3]", "result": "9.9 ± 0.2^c BU"}, {"measurement": "recognition threshold (RT), nitrobenzene", "setting": "[2]; [3]", "result": "9.5 ± 0.2^a BU"}, {"measurement": "recognition threshold (RT), pyridine", "setting": "[2]; [3]", "result": "9.0 ± 0.2^a BU"}, {"measurement": "recognition threshold (RT), thiophene", "setting": "[2]; [3]", "result": "9.1 ± 0.2^c BU"}, {"measurement": "detection threshold (DT), amyl acetate", "setting": "[2]; [4]", "result": "10.5 ± 0.3^d BU"}, {"measurement": "detection threshold (DT), nitrobenzene", "setting": "[2]; [4]", "result": "10.3 ± 0.3^a BU"}, {"measurement": "detection threshold (DT), pyridine", "setting": "[2]; [4]", "result": "9.5 ± 0.2", "unit": "BU"}, {"measurement": "detection threshold (DT), thiophene", "setting": "[2]; [4]", "result": "10.1 ± 0.3^d BU"}, {"measurement": "recognition threshold (RT), amyl acetate", "setting": "[2]; [4]", "result": "11.3 ± 0.2^ BU"}, {"measurement": "recognition threshold (RT), nitrobenzene", "setting": "[2]; [4]", "result": "11.2 ± 0.2^d BU"}, {"measurement": "recognition threshold (RT), thiophene", "setting": "[2]; [4]", "result": "11.4 ± 0.2^ BU"}, {"measurement": "total mean increase in ME, all odors", "setting": "[2]; oral 400 mg", "result": 10.4, "unit": "%"}, {"measurement": "detection threshold (DT), amyl acetate", "setting": "[2]; [5]", "result": "7.1 ± 0.3^b BET"}, {"measurement": "detection threshold (DT), nitrobenzene", "setting": "[2]; [5]", "result": "7.2 ± 0.3^c BET"}, {"measurement": "detection threshold (DT), pyridine", "setting": "[2]; [5]", "result": "7.0 ± 0.3^c BET"}, {"measurement": "detection threshold (DT), thiophene", "setting": "[2]; [5]", "result": "6.8 ± 0.4^c BET"}, {"measurement": "magnitude estimation (ME), amyl acetate", "setting": "[2]; [5]", "result": "18 ± 2^c %"}, {"measurement": "magnitude estimation (ME), nitrobenzene", "setting": "[2]; [5]", "result": "23 ± 2^a %"}, {"measurement": "magnitude estimation (ME), thiophene", "setting": "[2]; [5]", "result": "26 ± 2^c %"}, {"measurement": "recognition threshold (RT), nitrobenzene", "setting": "[2]; [5]", "result": "8.9 ± 0.3^b BU"}, {"measurement": "recognition threshold (RT), pyridine", "setting": "[2]; [5]", "result": "8.5 ± 0.3^a BU"}, {"measurement": "recognition threshold (RT), thiophene", "setting": "[2]; [5]", "result": "8.4 ± 0.3^a BU"}, {"measurement": "detection threshold (DT), amyl acetate", "setting": "[2]; [6]", "result": "10.1 ± 0.5^a BU"}, {"measurement": "detection threshold (DT), pyridine", "setting": "[2]; [6]", "result": "8.8 ± 0.5", "unit": "BU"}, {"measurement": "recognition threshold (RT), amyl acetate", "setting": "[2]; [6]", "result": "11.2 ± 0.3^ BU"}, {"measurement": "recognition threshold (RT), nitrobenzene", "setting": "[2]; [6]", "result": "10.9 ± 0.4^e BU"}, {"measurement": "recognition threshold (RT), thiophene", "setting": "[2]; [6]", "result": "10.8 ± 0.4^d BU"}, {"measurement": "detection threshold (DT), amyl acetate", "setting": "[2]; [7]", "result": "7.8 ± 0.3^a BET"}, {"measurement": "detection threshold (DT), nitrobenzene", "setting": "[2]; [7]", "result": "7.8 ± 0.3^a BET"}, {"measurement": "detection threshold (DT), pyridine", "setting": "[2]; [7]", "result": "7.4 ± 0.2^c BET"}, {"measurement": "detection threshold (DT), thiophene", "setting": "[2]; [7]", "result": "7.1 ± 0.3^a BET"}, {"measurement": "magnitude estimation (ME), amyl acetate", "setting": "[2]; [7]", "result": "15 ± 2^c %"}, {"measurement": "magnitude estimation (ME), nitrobenzene", "setting": "[2]; [7]", "result": "18 ± 2^d %"}, {"measurement": "magnitude estimation (ME), pyridine", "setting": "[2]; [7]", "result": "26 ± 2^d %"}, {"measurement": "magnitude estimation (ME), thiophene", "setting": "[2]; [7]", "result": "21 ± 2^d %"}, {"measurement": "recognition threshold (RT), amyl acetate", "setting": "[2]; [7]", "result": "9.6 ± 0.2^a BU"}, {"measurement": "recognition threshold (RT), nitrobenzene", "setting": "[2]; [7]", "result": "9.1 ± 0.2^c BU"}, {"measurement": "recognition threshold (RT), pyridine", "setting": "[2]; [7]", "result": "9.4 ± 0.2^c BU"}, {"measurement": "recognition threshold (RT), thiophene", "setting": "[2]; [7]", "result": "9.0 ± 0.3^c BU"}, {"measurement": "detection threshold (DT), amyl acetate", "setting": "[2]; [8]", "result": "10.1 ± 0.3^a BU"}, {"measurement": "recognition threshold (RT), amyl acetate", "setting": "[2]; [8]", "result": "11.1 ± 0.2^c BU"}, {"measurement": "recognition threshold (RT), nitrobenzene", "setting": "[2]; [8]", "result": "10.8 ± 0.3^e BU"}, {"measurement": "recognition threshold (RT), pyridine", "setting": "[2]; [8]", "result": "10.9 ± 0.3", "unit": "BU"}, {"measurement": "recognition threshold (RT), thiophene", "setting": "[2]; [8]", "result": "10.9 ± 0.3^b BU"}, {"measurement": "detection threshold (DT), amyl acetate", "setting": "[2]; [9]", "result": "7.2 ± 0.8", "unit": "BU"}, {"measurement": "detection threshold (DT), nitrobenzene", "setting": "[2]; [9]", "result": "7.0 ± 0.8^d BU"}, {"measurement": "detection threshold (DT), thiophene", "setting": "[2]; [9]", "result": "7.2 ± 0.7", "unit": "BU"}, {"measurement": "magnitude estimation (ME), amyl acetate", "setting": "[2]; [9]", "result": "24 ± 2^a %"}, {"measurement": "magnitude estimation (ME), nitrobenzene", "setting": "[2]; [9]", "result": "25 ± 6 ^ %"}, {"measurement": "magnitude estimation (ME), pyridine", "setting": "[2]; [9]", "result": "29 ± 5", "unit": "%"}, {"measurement": "magnitude estimation (ME), thiophene", "setting": "[2]; [9]", "result": "20 ± 4", "unit": "%"}, {"measurement": "recognition threshold (RT), amyl acetate", "setting": "[2]; [9]", "result": "9.0 ± 0.5^b BU"}, {"measurement": "recognition threshold (RT), nitrobenzene", "setting": "[2]; [9]", "result": "7.8 ± 0.8^d BU"}, {"measurement": "recognition threshold (RT), pyridine", "setting": "[2]; [9]", "result": "8.5 ± 0.6^c BU"}, {"measurement": "recognition threshold (RT), thiophene", "setting": "[2]; [9]", "result": "9.6 ± 0.6", "unit": "BU"}, {"measurement": "detection threshold (DT), amyl acetate", "setting": "[2]; [10]", "result": "10.6 ± 0.5^ BU"}, {"measurement": "detection threshold (DT), nitrobenzene", "setting": "[2]; [10]", "result": "10.1 ± 0.8^ BU"}, {"measurement": "detection threshold (DT), pyridine", "setting": "[2]; [10]", "result": "9.6 ± 0.8", "unit": "BU"}, {"measurement": "recognition threshold (RT), amyl acetate", "setting": "[2]; [10]", "result": "11.6 ± 0.4^ BU"}, {"measurement": "recognition threshold (RT), nitrobenzene", "setting": "[2]; [10]", "result": "11.3 ± 0.7^ BU"}, {"measurement": "recognition threshold (RT), pyridine", "setting": "[2]; [10]", "result": "10.3 ± 1.0", "unit": "BU"}, {"measurement": "recognition threshold (RT), thiophene", "setting": "[2]; [10]", "result": "11.6 ± 0.2^ BU"}]}]}
